Measured values reported in patent publication US11021511B2, “Cyclic dinucleotides as sting agonists” (Janssen Biotech, Inc., priority 2017, dated 2021).

Columns and labels:
[1] = test system: THP1-Blue ISG cells; assay: Human interferon-β induction assay; assay type: cell-based; settings: total cumulative IFN-β induction over the dose range tested (0.78 to 50 μM) in THP-1 Blue cells
Experimental: THP1-Blue ISG cells are used to measure the secretion of IFN-β into the culture supernatant following STING pathway activation. To run the assay, anti-IFN-β capture antibodies were coated on 96 well MultiArray plates (Mesoscale Discovery). After a one hour incubation, plates were washed and 50 μL supernatant from the STING human cell reporter assay plates or IFN-β standards were mixed with 20 μL Sulfotag-conjugated detection antibody in the coated plates. Plates were incubated, shaking for 2 h, washed, and read buffer was applied. Electrochemiluminescence was measured on the SectorImager.

[2] = test system: primary human PBMC; assay: PBMC activation, CD54 upregulation on monocytes by flow cytometry; assay type: cell-based; settings: 20 μM, 48 h, relative to resting cells
Experimental: Concurrently, PBMC were isolated as described previously. To stimulate the PBMC, 10,000,000 cells were dispensed into 400 μL/well of flat-bottom, tissue culture treated, 24-well plates. Test compounds were added in a volume of 100 μL, then the cultures were incubated for 48 h at 37° C., 5% CO2. Supernatants were harvested. Cells were measured for activation marker upregulation using flow cytometery. Briefly, cells were stained with fluorescently labeled antibodies directed to CD56, CD19, CD3, CD8a, CD14, CD69, CD54, CD161, CD4 and CD80. Samples were analyzed on an Attune N×T flow cytometer (Thermo Fisher, Carlsbad, Calif.)
PBMCs were stimulated with 20 μM of CDN for 48 h. Cells were assessed by flow cytometry for upregulation of CD54 on monocytes. The fold increase in Mean Fluoresence Intensity was calculated relative to the levels on resting cells. The data is an average of two independent donors.

[3] = biological target: human STING (Homo sapiens (Human), UniProt Q86WV6, H232R); assay: human STING SPA binding assay
Experimental: The HIS tag is cleaved after purification and prior to biotinylation.
Test compounds (80 nL) were added with an acoustic dispenser (EDC Biosystems) in 100% DMSO for a final assay concentration of 1% DMSO. Plates were centrifuged for 1 min and incubated for 60 min at room temperature. Finally, (2 μL) polystyrene streptavidin SPA beads (PerkinElmer RPNQ0306) were added and plates were sealed and centrifuged for 1 min at room temperature. Plates were dark adapted for 2 h and read on a ViewLux (Perkin Elmer) for 12 min per plate.

[4] = test system: human STING pathway in THP1-ISG cells; assay: STING human cell reporter assay; assay type: cell-based; settings: SEAP reporter, 24 h
Experimental: Agonism of the human STING pathway is assessed in THP1-ISG cells (Invivogen, cat #thp-isg) derived from human THP1 monocyte cell line by stable integration of an interferon regulatory factor (IRF)-inducible SEAP reporter construct. THP1-Blue ISG cells express a secreted embryonic alkaline phosphatase (SEAP) reporter gene under the control of an ISG54 minimal promoter in conjunction with five interferon (IFN)-stimulated response elements. As a result, THP1-Blue ISG cells allow the monitoring of IRF activation by determining the activity of SEAP. The levels of IRF-induced SEAP in the cell culture supernatant are readily assessed with alkaline phosphatase detection medium, a SEAP detection reagent. These cells are resistant to Zeocin. […] To run the assay, 60,000 cells were dispensed in 30 μL/well of a white, opaque bottom tissue culture treated 384-well plate.
Test compounds were added in a volume of 10 μL (1% DMSO final concentration). Compounds are initially prepared in 100% DMSO, spotted on an intermediate dilution plate and then diluted in media prior to transfer. The assay was incubated for 24 h at 37° C., 5% CO2 then plates were centrifuged at 1200 rpm (120×g) for 5 min. […]

human STING, sequence (Q86WV6 139-379 H232R): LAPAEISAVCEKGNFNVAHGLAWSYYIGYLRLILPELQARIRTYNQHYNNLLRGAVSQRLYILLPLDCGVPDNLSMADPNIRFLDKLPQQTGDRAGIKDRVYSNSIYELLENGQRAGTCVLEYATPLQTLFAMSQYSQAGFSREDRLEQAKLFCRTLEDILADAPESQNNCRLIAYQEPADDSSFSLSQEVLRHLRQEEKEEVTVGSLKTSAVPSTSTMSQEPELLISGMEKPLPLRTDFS

Structure (SMILES)	human IFN-β (ranking value) [1]	other results
COC1C2COP(=O)(S)OC3C(COP(=O)(S)OC1C(n1cnc4c(=O)[nH]c(N)nc41)O2)OC(n1cnc2c(N)ncnc21)C3F (single isomer, unassigned) [Compound 6a]	2427	–
COC1C2COP(=O)(S)OC3C(COP(=O)(S)OC1C(n1cnc4c(=O)[nH]c(N)nc41)O2)OC(n1cnc2c(N)ncnc21)C3F (single isomer, unassigned) [Compound 6b]	904	–
COC1C2COP(=O)(S)OC3C(COP(=O)(S)OC1C(n1cnc4c(=O)[nH]c(N)nc41)O2)OC(n1cnc2c(N)ncnc21)C3F (single isomer, unassigned) [Compound 6c]	4266	–
COC1C2COP(=O)(S)OC3C(COP(=O)(S)OC1C(n1cnc4c(=O)[nH]c(N)nc41)O2)OC(n1cnc2c(N)ncnc21)C3F (single isomer, unassigned) [Compound 6d]	3039	–
Nc1nc2c(ncn2[C@@H]2O[C@@H]3COP(=O)(O)O[C@H]4[C@@H](O)[C@H](n5cnc6c(N)ncnc65)O[C@@H]4COP(=O)(O)O[C@@H]2[C@@H]3O)c(=O)[nH]1 [4-2′3′-cGAMP, (2′,3′)cyclic guanosine monophosphate-adenosine monophosphate]	–	MFI, fold increase of CD54 on monocytes [2]: 4.5
CC1(O)C2OP(=O)(O)OCC3OC(n4cnc5c(=O)[nH]c(N)nc54)C(OP(=O)(O)OCC2OC1n1cnc2c(N)ncnc21)C3O (centres unmarked) [Compound 1]	–	IC50 [3]: 54.5 µM; EC50 [4]: 1.81 µM
COC1C2COP(=O)(O)OC3C(COP(=O)(O)OC1C(n1cnc4c(=O)[nH]c(N)nc41)O2)OC(n1cnc2c(N)ncnc21)C3F (centres unmarked) [Compound 5]	1024	–
